The values that follow come from patent US6930123B2, “sPLA2 inhibitors” (Eli Lilly and Company, priority 2000, dated 2005).

Data set [1] addresses T1, recombinant human secreted phospholipase A2 (Homo sapiens, UniProt P14555).
T1 sequence (P14555 21-144): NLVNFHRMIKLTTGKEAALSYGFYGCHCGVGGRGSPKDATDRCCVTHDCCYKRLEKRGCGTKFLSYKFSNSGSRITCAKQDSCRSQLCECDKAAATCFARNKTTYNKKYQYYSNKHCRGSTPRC
The experiment in a line: chromogenic assay for inhibitors of recombinant human secreted phospholipase A2. The format is biochemical. Particulars: diheptanoyl thio-PC substrate, pH 7.5, 40° C. for 30 minutes, absorbance at 405 nanometers, titrated in triplicate. An excerpt: The following chromogenic assay procedure was used to identify and evaluate inhibitors of recombinant human secreted phospholipase A2. The assay described herein has been adapted for high volume screening using 96 well microtiter plates. A general description of this assay method is found in the article, “Analysis of Human Synovial Fluid Phospholipase A2 on Short Chain Phosphatidylcholine-Mixed Micelles: Development of a Spectrophotometric Assay Suitable for a Microtiterplate Reader”, by Laure J. Reynolds, Lori L. Hughes, and Edward A Dennis, Analytical Biochemistry, 204, pp. 190-197, 1992 (the disclosure of which is incorporated herein by reference):
A measured volume of racemic dipheptanoyl thio PC supplied in chloroform at a concentration of 100 mg/ml is taken to dryness and redissolved in 10 millimolar TRITON X-100™ nonionic detergent aqueous solution. Reaction Buffer is added to the solution, then DTNB to give the Reaction Mixture.
The reaction mixture thus obtained contains 1 mM diheptanoly thio-PC substrate, 0.29 mm Triton X-100™ detergent, and 0.12 mm DTMB in a buffered aqueous solution at pH 7.5.
• 1. Add 0.2 ml reaction mixture to all wells; • 2. Add 10 ul test compound (or solvent blank) to appropriate wells, mix 20 seconds; • 3. Add 50 nanograms of sPLA2 (10 microliters) to appropriate wells; • 4. Incubate plate at 40° C. for 30 minutes; • 5. Read absorbance of wells at 405 nanometers with an automatic plate reader.
Tests were done in triplicate. Typically, compounds were tested at a final concentration of 5 ug/ml. […] Lack of color development at 405 nanometers evidenced inhibition. Compounds initially found to be active were re-assayed to confirm their activity and, if sufficiently active, IC50 values were determined. […] In all cases, % inhibition measured at 405 nanometers generated by enzyme reactions containing inhibitors relative to the uninhibited control reactions was determined. […] IC50 values were determined by plotting log concentration versus inhibition values in the range from 10-90% inhibition.

One may read the IC50 as the concentration at which inhibition is half-maximal. On to `CCOC(=O)COc1c2ccccc2cc2c1c(C(=O)C(N)=O)c(CC)n2Cc1ccccc1` [Example 1, 2-[[3-(2-amino-1,2-dioxoethyl)-1-benzyl-2-ethyl-1H-benz[f]indol-4-yl]oxy]acetic acid ethyl ester], for which the IC50 in data set [1] is 1.3 µM.

Take `CCc1c(C(=O)C(N)=O)c2c(OCC(=O)OCc3ccccc3)c3ccccc3cc2n1Cc1ccccc1` [Example 2, 2-[[3-(2-amino-1,2-dioxoethyl)-1-benzyl-2-ethyl-1H-benz[f]indol-4-yl]oxy]acetic acid benzyl ester]: the concentration for half-maximal inhibition (IC50) in data set [1] was 14.3 µM.

Usually melting point stands for the temperature, or range, at which the solid turns liquid. Regarding `CCc1c(C(=O)C(N)=O)c2c(OCC(=O)O)c3ccccc3cc2n1Cc1ccccc1` [Example 3, 2-[[3-(2-amino-1,2-dioxoethyl)-1-benzyl-2-ethyl-1H-benz[f]indol-4-yl]oxy]acetic acid], the melting point is 243 to 253 °C (dec.). In data set [1], the half-maximal inhibitory concentration (IC50) was found to be 1.06 µM.
